Test system: MkC1qDC
Experiment: hemagglutination inhibition, fixed human group […] erythrocytes, two-fold dilutions
Type: cell-based, Modiolus kurilensis
Conditions: Ca2+-dependent lectin activity, 0.1 mg/mL protein, titer decline by one two-fold dilution, also given as 1.16 mg/mL

## OC[C@H]1OC(O)C[C@@H](O)[C@H]1O (stereo partly drawn) [2-deoxy-D-galactose]
Also printed as 2.46 mg/mL
  IC50: 15 mM

## OC[C@H]1O[C@H](O[C@@H]2C(O)O[C@H](CO)[C@@H](O)[C@@H]2O)[C@@H](O)[C@@H](O)[C@@H]1O (stereo partly drawn) [2α- mannobiose]
Also printed as 10.26 mg/mL
  IC50: 30 mM

## OC[C@H]1OC(O)[C@H](O)[C@@H](O)[C@H]1O (stereo partly drawn) [D-galactose]
Also printed as 5.40 mg/mL
  IC50: 30 mM

## O=C(O)[C@H]1OC(O)[C@H](O)[C@@H](O)[C@H]1O (stereo partly drawn) [D-galacturonic acid]
Also printed as 1.46 mg/mL
  IC50: 7.5 mM

## O=C(O)[C@H]1OC(O)[C@H](O)[C@@H](O)[C@@H]1O (stereo partly drawn) [D-glucuronic acid]
Also printed as 1.46 mg/mL
  IC50: 7.5 mM

## OC[C@H]1O[C@@H](O[C@H]2[C@H](O)[C@@H](O)C(O)O[C@@H]2CO)[C@H](O)[C@@H](O)[C@H]1O (stereo partly drawn) [D-lactose]
Also printed as 5.13 mg/mL
  IC50: 15 mM

## OC[C@@H]1OC(O)[C@@H](O)[C@@H](O)[C@@H]1O (stereo partly drawn) [L-gulose]
Also printed as 1.35 mg/mL
  IC50: 7.5 mM

## CC(=O)N[C@H]1[C@H]([C@H](O)[C@H](O)CO)OC(O)(C(=O)O)C[C@@H]1O (some centres unmarked) [N-acetylneuraminic (sialic) acid]
  IC50: 3.75 mM
